Source: PubChem BioAssay (NCI)
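All cell lines were grown in 96-well plates and treated with compound for 48 hours. At the GI50, growth is halved. Definition used: TGI = concentration required for complete inhibition of growth.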

Key:
Assay in all cases: DTP human tumour cell line panel, 48 h
SNB-19 CNS = tested on: SNB-19 CNS
TK-10 renal = tested on: TK-10 renal
RPMI-8226 leukemia = tested on: RPMI-8226 leukemia
MDA-MB-435 = tested on: MDA-MB-435
SW-620 colon = tested on: SW-620 colon
CAKI-1 renal = tested on: CAKI-1 renal
MOLT-4 leukemia = tested on: MOLT-4 leukemia
K-562 leukemia = tested on: K-562 leukemia
OVCAR-5 ovarian = tested on: OVCAR-5 ovarian
DU-145 prostate = tested on: DU-145 prostate
MDA-MB-231 breast = tested on: MDA-MB-231 breast
SR leukemia = tested on: SR leukemia
MALME-3M melanoma = tested on: MALME-3M melanoma
HS 578T breast = tested on: HS 578T breast
UACC-62 melanoma = tested on: UACC-62 melanoma
MCF7 breast = tested on: MCF7 breast
HCT-116 colon = tested on: HCT-116 colon
CCRF-CEM leukemia = tested on: CCRF-CEM leukemia
UACC-257 melanoma = tested on: UACC-257 melanoma
NCI/ADR-RES ovarian = tested on: NCI/ADR-RES ovarian
SK-OV-3 ovarian = tested on: SK-OV-3 ovarian
NCI-H460 lung = tested on: NCI-H460 lung
HOP-92 NSCLC = tested on: HOP-92 NSCLC
EKVX NSCLC = tested on: EKVX NSCLC
SN12C renal = tested on: SN12C renal
M14 melanoma = tested on: M14 melanoma
OVCAR-8 ovarian = tested on: OVCAR-8 ovarian
BT-549 breast = tested on: BT-549 breast
RXF 393 renal = tested on: RXF 393 renal

COc1ccc(C2CC(c3cc(Cl)c(C)cc3O)=NN2c2ccc(S(N)(=O)=O)cc2)cc1OC (stereo not drawn)
GI50 (SNB-19 CNS): 5.53 µM
TGI (SNB-19 CNS): 89.3 µM
GI50 (TK-10 renal): 3.97 µM
TGI (TK-10 renal): 18.4 µM
GI50 (RPMI-8226 leukemia): 4.1 µM
TGI (RPMI-8226 leukemia): > 100 µM
GI50 (MDA-MB-435): 3.97 µM
TGI (MDA-MB-435): 24 µM
GI50 (SW-620 colon): 4.08 µM
TGI (SW-620 colon): 26.6 µM
GI50 (CAKI-1 renal): 2.78 µM
TGI (CAKI-1 renal): > 100 µM
GI50 (MOLT-4 leukemia): 5.29 µM
TGI (MOLT-4 leukemia): > 100 µM
GI50 (K-562 leukemia): 3.18 µM
TGI (K-562 leukemia): > 100 µM
GI50 (OVCAR-5 ovarian): 2.25 µM
TGI (OVCAR-5 ovarian): 6.36 µM
GI50 (DU-145 prostate): 4.49 µM
TGI (DU-145 prostate): 21.7 µM
GI50 (MDA-MB-231 breast): 3.81 µM
TGI (MDA-MB-231 breast): 12.5 µM
GI50 (SR leukemia): 2.82 µM
TGI (SR leukemia): > 100 µM
GI50 (MALME-3M melanoma): 3.65 µM
TGI (MALME-3M melanoma): 24.6 µM
GI50 (HS 578T breast): 3.29 µM
TGI (HS 578T breast): 34.3 µM
GI50 (UACC-62 melanoma): 3.13 µM
TGI (UACC-62 melanoma): 12.9 µM
GI50 (MCF7 breast): 3.07 µM
TGI (MCF7 breast): 13.6 µM
GI50 (HCT-116 colon): 1.72 µM
TGI (HCT-116 colon): 4.36 µM
GI50 (CCRF-CEM leukemia): 5.35 µM
TGI (CCRF-CEM leukemia): > 100 µM
GI50 (UACC-257 melanoma): 4.22 µM
TGI (UACC-257 melanoma): 19.7 µM
GI50 (NCI/ADR-RES ovarian): 3.39 µM
TGI (NCI/ADR-RES ovarian): 14.1 µM
GI50 (SK-OV-3 ovarian): 4.51 µM
TGI (SK-OV-3 ovarian): 38.3 µM
GI50 (NCI-H460 lung): 2.5 µM
TGI (NCI-H460 lung): 5.85 µM
GI50 (HOP-92 NSCLC): 1.81 µM
TGI (HOP-92 NSCLC): 7.42 µM
GI50 (EKVX NSCLC): 4.15 µM
TGI (EKVX NSCLC): > 100 µM
GI50 (SN12C renal): 3.7 µM
TGI (SN12C renal): 30 µM
GI50 (M14 melanoma): 2.61 µM
TGI (M14 melanoma): 7.2 µM
GI50 (OVCAR-8 ovarian): 3.39 µM
TGI (OVCAR-8 ovarian): 17.9 µM
GI50 (BT-549 breast): 3.03 µM
TGI (BT-549 breast): 13.4 µM
GI50 (RXF 393 renal): 2.88 µM
TGI (RXF 393 renal): 7.52 µM
